# Assay results published in paper PMC10794144, “A novel antibiotic class targeting the lipopolysaccharide transporter” (Nature, 2024).
# Read-outs that look alike come from different tables or passages of the source.
# Tested on: A. baumannii
# Test: microbe, parasite or virus in culture
# Settings: Acinetobacter baumannii
# Summary of the method: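 MIC was taken as the lowest concentration without visible growth, or past which OD600 no longer fell. Testing followed CLSI M07 and M100 broth microdilution, using 0.5 McFarland-derived inocula in CAMHB (LB for A. baylyi isolates).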
smiles,measurement,setting,value
"C[C@@H](O)[C@H]1C(=O)N2C(C(=O)O)=C(S[C@@H]3CN[C@H](C(=O)N(C)C)C3)[C@H](C)[C@H]12 [meropenem, reference compound]",MIC,"ATCC19606, read-out: MIC 100%, ATCC 19606, Study LGC282623, 100%",0.5 µg/mL
same,MIC,"ATCC19606, read-out: MIC 100%, ATCC 19606, Study LGC283932, 100%",1 µg/mL
same,MIC,"ATCC19606, read-out: MIC 100%, ATCC 19606, Study LGC284200, 100%",1 µg/mL
same,MIC,"ATCC19606, read-out: MIC 100%, ATCC 19606, Study LGC284879, 100%",4 µg/mL
same,MIC,"ATCC19606, read-out: MIC 100%, ATCC 19606, Study LGC285582, 100%",4 µg/mL
same,MIC,"ATCC19606, read-out: MIC 100%, ATCC 19606, Study LGC286210, 100%",2 µg/mL
same,MIC,"ATCC19606, read-out: MIC 100%, ATCC 19606, Study LGC293598, 100%",2 µg/mL
same,MIC,"ATCC19606, read-out: MIC 100%, ATCC 19606, Study LGC294355, 100%",2 µg/mL
same,MIC,"ATCC19606, read-out: MIC 100%, ATCC 19606, Study LGC295147, 100%",2 µg/mL
same,MIC,"ATCC19606, read-out: MIC 100%, ATCC 19606, Study LGC296813, 100%",2 µg/mL
same,MIC,"ATCC19606, read-out: MIC 100%, ATCC 19606, Study LGC299544, 100%",4 µg/mL
same,MIC,"ATCC19606, read-out: MIC 100%, ATCC 19606, Study LGC301026, 100%",4 µg/mL
same,MIC,"ATCC19606, read-out: MIC 100%, ATCC 19606, Study LGC308175, 100%",1 µg/mL
same,MIC,"ATCC19606, read-out: MIC 100%, ATCC 19606, Study ROC003, 100%",1 µg/mL
same,MIC,"ATCC19606, read-out: MIC 100%, ATCC 19606, Study ROC004, 100%",1 µg/mL
same,MIC,"ATCC19606, read-out: MIC 100%, ATCC 19606, Study ROC005, 100%",1 µg/mL
same,MIC,"ATCC19606, read-out: MIC 100%, ATCC 19606, Study ROC006, 100%",1 µg/mL
same,MIC,"ATCC19606, read-out: MIC 100%, ATCC 19606, Study ROC007, 100%",2 µg/mL
same,MIC,"ATCC19606, read-out: MIC 100%, ATCC 19606, Study ROC008, 100%",1 µg/mL
same,MIC,"ATCC19606, read-out: MIC 100%, ATCC 19606, Study ROC009, 100%",2 µg/mL
same,MIC,"ATCC19606, read-out: MIC 100%, ATCC 19606, Study ROC010, 100%",2 µg/mL
same,MIC,"ATCC19606, read-out: MIC 100%, ATCC 19606, Study ROC012, 100%",0.5 µg/mL
same,MIC,"ATCC19606, read-out: MIC 100%, ATCC 19606, Study ROC013, 100%",4 µg/mL
same,MIC,"ATCCBAA747, ATCC BAA-747, CAMHB, MCPs read at 80% inhibition",0.12 µg/mL
same,MIC,"ROB08701, CAMHB, MCPs read at 80% inhibition",1 µg/mL
same,MIC,"ROB08702, CAMHB, MCPs read at 80% inhibition",> 16 µg/mL
same,MIC,"ROB08703, CAMHB, MCPs read at 80% inhibition",> 16 µg/mL
same,MIC,"ROB08704, CAMHB, MCPs read at 80% inhibition",> 16 µg/mL
same,MIC,"ROB08705, CAMHB, MCPs read at 80% inhibition",> 16 µg/mL
same,MIC,"ROB08706, CAMHB, MCPs read at 80% inhibition",> 16 µg/mL
same,MIC,"ROB08707, CAMHB, MCPs read at 80% inhibition",> 16 µg/mL
same,MIC,"ROB08708, CAMHB, MCPs read at 80% inhibition",16 µg/mL
same,MIC,"ROB08709, CAMHB, MCPs read at 80% inhibition",> 16 µg/mL
same,MIC,"ROB08710, CAMHB, MCPs read at 80% inhibition",> 16 µg/mL
same,MIC,"read-out: MIC 100%, ROB08701, Study LGC277937, 100%",1 µg/mL
same,MIC,"read-out: MIC 100%, ROB08701, Study LGC279800, 100%",1 µg/mL
same,MIC,"read-out: MIC 100%, ROB08701, Study LGC281440, 100%",1 µg/mL
same,MIC,"read-out: MIC 100%, ROB08701, Study LGC282160, 100%",1 µg/mL
same,MIC,"read-out: MIC 100%, ROB08701, Study LGC282623, 100%",1 µg/mL
same,MIC,"read-out: MIC 100%, ROB08701, Study LGC283932, 100%",1 µg/mL
same,MIC,"read-out: MIC 100%, ROB08701, Study LGC284200, 100%",32 µg/mL
same,MIC,"read-out: MIC 100%, ROB08701, Study LGC284879, 100%",1 µg/mL
same,MIC,"read-out: MIC 100%, ROB08701, Study LGC285582, 100%",1 µg/mL
same,MIC,"read-out: MIC 100%, ROB08701, Study LGC286210, 100%",1 µg/mL
same,MIC,"read-out: MIC 100%, ROB08701, Study LGC293598, 100%",2 µg/mL
same,MIC,"read-out: MIC 100%, ROB08701, Study LGC294355, 100%",1 µg/mL
same,MIC,"read-out: MIC 100%, ROB08701, Study LGC295147, 100%",1 µg/mL
